Data: US20250339426A1, “GCN2 MODULATOR FOR TREATING CANCER” (HIBERCELL, INC., priority 2022, published 2025)

Columns and labels:
[1] = test system: NCI-H1975 (human non-small cell lung cancer cells); experiment: In vivo tumor growth inhibition, NCI-H1975 xenograft; parameters: species or system Athymic Nude-Foxn1nu mice; conditions: HC-7366 3 mg/kg twice daily oral
Procedure: NCI-H1975 (human non-small cell lung cancer cells): Female 7-8 weeks old Athymic Nude-Foxn1nu mice were inoculated subcutaneously on the right flank with NCI-H1975 tumor cells (2.5×10^6) in 0.1 ml of RPMI1640 medium without serum for tumor development. Single agent HC-7366 was dosed at 3 mg/kg, osimertinib at 2.5 mg/kg and dacomitinib at 15 mg/kg. HC-7366 was combined with either osimertinib or dacomitinib. The vehicle for the groups was 0.5% methyl cellulose. The treatments were started when the mean tumor size reached approximately 205 mm^3 at Day 22 post inoculation and continued until end of study. HC-7366 was given twice daily by oral gavage whereas osimertinib or dacomitinib were administered once a day by oral gavage (FIGS. 131 and 133).
[formula] • 2.2.2 Tumor Measurements: The measurement of tumor size was conducted three times weekly with a caliper and recorded. The tumor volume (mm^3) was estimated using the formula: TV=a×b^2/2, where “a” and “b” is long and short diameters of a tumor, respectively. Tumor volume was calculated using the formula [tumor volume (mm^3)=π/6×length×width^2).
Regression was calculated using the formula=100×ΔT/T initial, if ΔT<0. Animals with 0 mm^3 tumor volume (no measurable tumor) for three consecutive measurements were considered as complete responders and animals with 50% tumor regressions were partial responders.

[2] = test system: HIF1α and HIF2a in FaDu tumors; experiment: Tumor IHC, FaDu tumors; assay type: in vivo, BALB/c nude mice; conditions: end of study
Procedure: Immunohistochemical analysis was carried out on tumors that were collected at the end of the study described in Example 6. Formalin-fixed paraffin-embedded samples were sectioned at 5 μm thickness and mounted on Superfrost Plus microscope slides (Fisher Scientific). All immunohistochemical (IHC) staining was performed on Bond Rx auto-stainer (Leica Biosystems) using the conventional TSA-amplified detection system. Primary antibodies used were as follows: a-ASNS (Cell Signaling Technology #92479), a-PUMA (Cell Signaling Technology #98672), a-PSAT1 (Proteintech #10501-1-AP), a-PHGDH (Proteintech #14719-1-AP), HIF-1a-Novus Biologicals NB 100-479, HIF-2a-Novus Biologicals NB100-122SS, and GLUT-1-EMB Biosciences 07-1401. […]
Slides were imaged with Aperio Versa 200 (Leica Biosystems) whole-slide scanner using 10×/0.32NA objective, and the data were analyzed using custom-written macros in ImageJ/FIJI (NIH). Briefly, 150 μm of outer edges of the tumor sections and necrotic regions (determined by lack of 4′,6-diamidino-2-phenylindole (DAPI) signal or presence of condensed DNA) were eliminated from the analysis. […] Scans of immune-staining were processed to remove background, then total intensity value above appropriate threshold levels was measured and normalized to tissue area. […]

MOLM-16 cells = experiment: CTG viability assay, MOLM-16 sgControl and sgGCN2 cells; assay type: cell-based, human; conditions: 24 or 48 hr
Procedure: MOLM-16 cells were obtained from DSMZ (#ACC 555) and were cultured in RPMI 1640 (Gibco, #11875119) with 20% FBS (Invitrogen, #10099141C) at 37° C. and 5% CO2. MOLM-16 GCN2 CRISPR knockout cells (sgGCN2) were generated and compared to control cells (sgControl). For viability experiments, cells were plated in 384-well cell culture plates and incubated overnight. Compounds were diluted in 8 concentrations by 3-fold dilution in 384pp-plate using TECAN EVO200 to a final concentration ranging from […]. The plates were incubated for 24 or 48 hr and viability was assessed by adding CellTiter-Glo® 2.0 Assay according to the manufacturer's protocol (Promega, G9243) to each well. The plates were then incubated at RT for 30 min. The luminescent signals were read by Envision (PerkinElmer) plate reader and analyzed by Prism.

[3] = test system: oxidative phosphorylation pathway in FaDu tumors; experiment: Non-targeted proteomic analysis of FaDu tumors; assay type: in vivo, mice
Procedure: FaDu tumor bearing mice were treated with vehicle or HC-7366 (1, 3, or 30 mg/kg) twice a day orally for three days, and on the morning of Day 4 an AM dose was administered and tumors and plasma were collected 1 hr after dose. Tumor and plasma samples were extracted and split into equal parts for analysis on LC/MS/MS and Polar LC platforms. Proprietary software was used to match ions to an in-house library of standards for metabolite identification and for metabolite quantitation by peak area integration (Metabolon). Proteomic analysis on tumors was performed at MS Bioworks. The equivalent of 3 μg of peptide from each pooled fraction was analyzed by nano LC-MS/MS with a Waters M-Class HPLC system interfaced to a ThermoFisher Fusion Lumos mass spectrometer. Histograms show metabolite levels of treatment groups normalized to vehicle control (FIGS. 115-122).
FaDu tumor bearing mice were treated with HC-7366 at 3 and 30 mg/kg twice a day for four days. Tumors were harvested for non-targeted proteomic analysis.

[4] = test system: Ki67 positive cells in DLD-1 tumor sections; experiment: IHC staining of Ki67 in DLD-1 tumor sections; assay type: in vivo, mice
Procedure: DLD-1 (human colorectal cancer cells): Female 6-8 weeks old BALB/c nude mice were inoculated subcutaneously on the right flank with DLD-1 tumor cells (5×10^6) in 0.1 ml of RPMI1640 medium without serum for tumor development. The treatments were started when the mean tumor size reached approximately 195 mm^3 at Day 7 post inoculation and continued until end of study by twice daily oral gavage dosing of HC-7366 at listed doses (vehicle, 0.3 mg/kg HC-7366, 1 mg/kg HC-7366, 3 mg/kg HC-7366, 10 mg/kg HC-7366, or 30 mg/kg HC-7366, FIG. 10). For the time course study, tumors were harvested at Days 4, 7 and 14. Tumors were then used for IHC and RNAseq experiments (see Example 21).
DLD-1 tumor bearing mice were treated with HC-7366 at 0.3, 1, 3, 10 and 30 mg/kg twice a day for 14 days. Tumors were harvested for RNAseq analysis at Day 4, Day 7 and Day 14 (FIG. 128).

For `CNC(=O)c1ncn2cc(-c3c(F)ccc(NS(=O)(=O)c4cc(Cl)cnc4OC)c3F)ncc12` [HC-7366, 6-(3-((5-chloro-2-methoxypyridine)-3-sulfonamido)-2,6-difluorophenyl)-N-methylimidazo[1,5-a]pyrazine-1-carboxamide], the TGI [1] was 59%, the HIF1α protein levels [2] was “significantly reduced” and the HIF2a protein levels [2] was “significantly reduced”. For the same compound, the viability response (MOLM-16 cells; GCN2 CRISPR knockout cells) was “reversed”, the viability (MOLM-16 cells; GCN2 wild-type (sgControl), lower concentrations, U-shaped manner) was “potently reduced viability” and the “oxidative phosphorylation pathway, pathway analysis (IPA)” value ([3]; 3 mg/kg twice a day, four days) was “strong repression”. For the same compound, the “protein subunits of the electron transport chain” value ([3]; 3 mg/kg, relative to vehicle) was “decreased”, the “Ki67 positive cancer cells” value ([4]; Day 4, 0.3, 10 or 30 mg/kg) was “not at the less efficacious doses” and the “Ki67 positive cancer cells” value ([4]; Day 4, 1 and 3 mg/kg) was “significantly reduced”.
